Experimental data from ChEMBL document CHEMBL4346711, “Discovery of coumarin Mannich base derivatives as multifunctional agents against monoamine oxidase B and neuroinflammation for the treatment of Parkinson's disease” (Eur J Med Chem, 2019).
The source made the active and inactive calls. No cut-off for these calls is given here.

Tests used:
[1] = Anti-neuroinflammatory activity in […] cells assessed as inhibition of LPS-induced NO production preincubated for 1 hr followed by LPS stimulation measured after 24 hrs by Griess reagent based assay; format: functional, cell-based; details: BV-2
[2] = system: SH-SY5Y; assay: Neuroprotection against H2O2-induced cell death in human SH-SY5Y cells assessed as increase in cell viability preincubated for 1 hr followed by H2O2 addition and measured after 24 hrs by MTT assay; format: functional, cell-based
[3] = molecular target: T1, Amine oxidase [flavin-containing] A (Homo sapiens, UniProt P21397); assay: Inhibition of recombinant human MAO-A expressed in baculovirus infected BTI insect cells using p-tyramine as substrate preincubated for 60 mins followed by substrate addition and measured after 30 mins by horse-radish peroxidase-coupled amplex red reagent-based fluorescence spectrophotometric method
T1 sequence (P21397 whole entry): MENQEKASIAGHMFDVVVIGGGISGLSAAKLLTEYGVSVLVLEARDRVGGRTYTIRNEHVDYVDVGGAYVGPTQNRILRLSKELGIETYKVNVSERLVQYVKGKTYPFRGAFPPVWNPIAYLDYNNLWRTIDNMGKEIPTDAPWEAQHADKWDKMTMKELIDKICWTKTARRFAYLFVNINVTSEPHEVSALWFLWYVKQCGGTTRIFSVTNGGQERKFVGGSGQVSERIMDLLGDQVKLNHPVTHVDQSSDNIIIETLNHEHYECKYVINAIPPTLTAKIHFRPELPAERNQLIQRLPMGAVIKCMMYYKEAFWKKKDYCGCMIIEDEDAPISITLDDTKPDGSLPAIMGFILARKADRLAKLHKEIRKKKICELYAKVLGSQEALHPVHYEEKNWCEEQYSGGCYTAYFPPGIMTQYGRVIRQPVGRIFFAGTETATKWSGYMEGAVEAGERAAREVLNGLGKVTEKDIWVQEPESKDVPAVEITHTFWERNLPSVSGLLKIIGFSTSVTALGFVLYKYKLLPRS

[4] = molecular target: T2, Amine oxidase [flavin-containing] B (Homo sapiens, UniProt P27338); assay: Inhibition of recombinant human MAO-B expressed in baculovirus infected BTI insect cells using p-tyramine as substrate preincubated for 60 mins followed by substrate addition and measured after 30 mins by horse-radish peroxidase-coupled amplex red reagent-based fluorescence spectrophotometric method
T2 sequence (P27338 whole entry): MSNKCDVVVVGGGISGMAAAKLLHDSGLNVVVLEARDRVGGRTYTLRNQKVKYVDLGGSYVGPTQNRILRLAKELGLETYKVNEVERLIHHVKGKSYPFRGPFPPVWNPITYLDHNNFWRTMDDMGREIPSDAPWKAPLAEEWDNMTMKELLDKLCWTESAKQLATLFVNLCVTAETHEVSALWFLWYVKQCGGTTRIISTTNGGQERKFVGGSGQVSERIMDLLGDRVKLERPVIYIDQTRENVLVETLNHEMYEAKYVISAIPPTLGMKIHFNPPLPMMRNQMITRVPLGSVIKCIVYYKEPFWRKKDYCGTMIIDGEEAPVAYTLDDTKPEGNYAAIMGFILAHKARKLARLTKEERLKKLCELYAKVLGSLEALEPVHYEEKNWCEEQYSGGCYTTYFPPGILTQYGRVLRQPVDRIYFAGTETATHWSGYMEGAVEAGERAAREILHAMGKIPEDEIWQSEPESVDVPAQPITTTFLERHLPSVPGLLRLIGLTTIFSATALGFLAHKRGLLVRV

[5] = species on record: Homo sapiens; assay: Selectivity index, ratio of IC50 for recombinant human MAO-A expressed in baculovirus infected BTI insect cells to IC50 for recombinant human MAO-B expressed in baculovirus infected BTI insect cells
[6] = system: SH-SY5Y; assay: Neuroprotection against L-glutamic acid-induced cell death in human SH-SY5Y cells assessed as increase in cell viability preincubated for 1 hr followed by L-glutamic acid addition and measured after 24 hrs by MTT assay; format: functional, cell-based
[7] = system: Mus musculus; assay: (§1) Anti-neuroinflammatory activity in MPTP-induced C57BL/6 mouse of Parkinson's disease assessed as increase in tyrosine hydroxylase positive cells in substantia nigra at 10 mg/kg, po pretreated for 30 mins followed by MPTP challenge for 7 days and subsequent compound redosing for 5 days measured post-last dose by DAB staining based immunohistochemistry method; format: functional, organism-based
[8] = system: Mus musculus; assay: (§2) Anti-parkinson's activity in MPTP-induced C57BL/6 mouse model of Parkinson's disease assessed as restoration of motor ability by measuring increase in latency to fall at 10 mg/kg, po pretreated for 30 mins followed by MPTP challenge for 7 days and subsequent compound redosing for 5 days measured post-last dose by rotarod test; format: functional, organism-based
[9] = system: Mus musculus; assay: (§3) Ex vivo Inhibition of MAO-B in mid brain homogenates of MPTP-induced C57BL/6 mouse model of Parkinson's disease at 50 mg/kg, ig using p-tyramine as substrate preincubated for 60 mins followed by substrate addition and measured after 30 mins by horse-radish peroxidase-coupled/amplex red reagent-based fluorescence spectrophotometric method; format: functional, organism-based
[10] = system: Mus musculus; assay: as §2, with “50” for “10”; format: functional, organism-based
[11] = system: Mus musculus; assay: Anti-neuroinflammatory activity in C57BL/6 mouse assessed as reduction in MPTP-induced COX2 expression in mid brain at 50 mg/kg, po pretreated for 30 mins followed by MPTP challenge for 7 days and subsequent compound redosing for 5 days measured post-last dose by Western blotting analysis; format: functional, organism-based
[12] = system: Mus musculus; assay: Anti-neuroinflammatory activity in po dosed MPTP-induced C57BL/6 mouse model of Parkinson's disease assessed as increase in tyrosine hydroxylase expression in mid brain pretreated for 30 mins followed by MPTP challenge for 7 days and subsequent compound redosing for 5 days measured post-last dose by DAB staining based immunohistochemistry method; format: functional, organism-based
[13] = system: Mus musculus; assay: as §2, with “activity in po dosed MPTP-induced C57BL/6” for “activity in MPTP-induced C57BL/6”, “to fall pretreated for” for “to fall at 10 mg/kg, po pretreated for”; format: functional, organism-based
[14] = system: Mus musculus; assay: as §3, with “inhibition” for “Inhibition”, “MAO-A” for “MAO-B”; format: functional, organism-based
[15] = system: Mus musculus; assay: Anti-neuroinflammatory activity in C57BL/6 mouse assessed as reduction in MPTP-induced iNOS expression in mid brain at 50 mg/kg, po pretreated for 30 mins followed by MPTP challenge for 7 days and subsequent compound redosing for 5 days measured post-last dose by Western blotting analysis; format: functional, organism-based
[16] = system: Mus musculus; assay: as §1, with “activity in po dosed MPTP-induced C57BL/6” for “activity in MPTP-induced C57BL/6”, “substantia nigra pretreated for” for “substantia nigra at 10 mg/kg, po pretreated for”; format: functional, organism-based

COc1cc(/C=C/C(=O)CC(=O)/C=C/c2ccc(O)c(OC)c2)ccc1O [CURCUMIN]
IC50 [1]: 1.58 µM

O=C(CCN1CCOCC1)c1cc2cc(Br)c(O)c(Br)c2oc1=O
EC50 [2]: > 100 µM | IC50 [3]: 34.1 µM | IC50 [1]: 24.6 µM | IC50 [4]: 14.1 µM | Ratio IC50 [5]: 2.42

O=C(CCN1CCCCC1)c1cc2ccc(O)cc2oc1=O
EC50 [2]: > 100 µM | IC50 [3]: > 200 µM | IC50 [1]: 2.13 µM | IC50 [4]: > 200 µM | EC50 [6]: 45.4 µM

Cc1cc(O)cc2oc(=O)c(C(=O)CCN3CCCC3)cc12
IC50 [3]: 173 µM | IC50 [1]: > 100 µM | IC50 [4]: 43.7 µM | EC50 [6]: > 100 µM | Ratio IC50 [5]: 3.97

CN(C)CCC(=O)c1cc2cc(Br)c(O)c(Br)c2oc1=O
EC50 [2]: > 100 µM | IC50 [3]: > 200 µM | IC50 [1]: > 100 µM | IC50 [4]: > 200 µM

Cc1cc(O)cc2oc(=O)c(C(=O)CCN3CCOCC3)cc12
EC50 [2]: > 100 µM | IC50 [3]: 98.5 µM | IC50 [1]: 0.28 µM | IC50 [4]: 36 µM | EC50 [6]: > 100 µM | Ratio IC50 [5]: 2.74

COc1ccc2cc(C(=O)CCN3CCCCC3)c(=O)oc2c1
EC50 [2]: > 100 µM | IC50 [3]: 12.2 µM | IC50 [1]: 0.02 µM | IC50 [4]: 20.1 µM | Ratio IC50 [5]: 0.61

CN(C)CCC(=O)c1cc2ccc(O)cc2oc1=O
IC50 [3]: 110 µM | IC50 [1]: 0.56 µM | IC50 [4]: 71.4 µM | EC50 [6]: > 100 µM | Ratio IC50 [5]: 1.53

O=C(CCN1CCCC1)c1cc2ccc(O)cc2oc1=O
IC50 [3]: > 200 µM | IC50 [1]: 0.61 µM | IC50 [4]: > 200 µM | EC50 [6]: > 100 µM

CCN(CC)CCC(=O)c1cc2ccc(O)cc2oc1=O
IC50 [3]: 89.9 µM | IC50 [1]: 2.67 µM | IC50 [4]: 94 µM | EC50 [6]: 13 µM | Ratio IC50 [5]: 0.96

O=C(CCN1CCOCC1)c1cc2ccc(O)cc2oc1=O
EC50 [2]: > 100 µM | IC50 [3]: 111 µM | IC50 [1]: 0.01 µM | IC50 [4]: 151 µM | EC50 [6]: 22.9 µM | Ratio IC50 [5]: 0.73

C#CCN(C)[C@H](C)Cc1ccccc1
Activity [7]: Active | Activity [8]: Active

COc1ccc2cc(C(=O)CCN3CCOCC3)c(=O)oc2c1
IC50 [3]: 2.46 µM | IC50 [1]: 8.61 µM | IC50 [4]: 4.62 µM | EC50 [6]: > 100 µM | Ratio IC50 [5]: 0.53

COc1ccc2cc(C(=O)CCN3CCCC3)c(=O)oc2c1
EC50 [2]: > 100 µM | IC50 [3]: 53.1 µM | IC50 [1]: > 100 µM | IC50 [4]: 18.1 µM | Ratio IC50 [5]: 2.93

Cc1cc(O)cc2oc(=O)c(C(=O)CCN(C)C)cc12
inhibition [9]: Active | EC50 [2]: 19.7 µM | IC50 [3]: > 200 µM | IC50 [1]: 0.22 µM | IC50 [4]: 3.66 µM | Activity [10]: Active | Activity [11]: Active | Activity [12]: Active | EC50 [6]: 25.7 µM | Activity [13]: Dose-dependent effect | inhibition [14]: inactive | Activity [15]: Active | Ratio IC50 [5]: > 100 | Activity [16]: Active

COc1ccc2cc(C(=O)CCN(C)C)c(=O)oc2c1
EC50 [2]: > 100 µM | IC50 [3]: 7.63 µM | IC50 [1]: > 100 µM | IC50 [4]: 21.1 µM | Ratio IC50 [5]: 0.36

Cc1cc(O)cc2oc(=O)c(C(=O)CCN3CCCCC3)cc12
EC50 [2]: 83.7 µM | IC50 [3]: 136 µM | IC50 [1]: 0.11 µM | IC50 [4]: 119 µM | EC50 [6]: > 100 µM | Ratio IC50 [5]: 1.14

O=C(CCN1CCCC1)c1cc2cc(Br)c(O)c(Br)c2oc1=O
EC50 [2]: 75.1 µM | IC50 [3]: 155 µM | IC50 [1]: > 100 µM | IC50 [4]: > 200 µM

O=C(CCN1CCN(Cc2ccccc2)CC1)c1cc2ccc(O)cc2oc1=O
EC50 [2]: 1.82 µM | IC50 [3]: 108 µM | IC50 [1]: 3.64 µM | IC50 [4]: 41.1 µM | EC50 [6]: > 100 µM | Ratio IC50 [5]: 2.63
